In assay [1] the test system is acetylcholine-induced abdominal constriction. The assay can be described thus: acetylcholine-induced abdominal constriction test (ACH). In kind it is in vivo. The following applies: mice; for inhibition in vivo at 100 mg/kg / ED50: Mus musculus; for inhibition in vivo at 100 mg/kg: dose level 100, read-out: ACH percent inhibition at dose 100. The text has this:
J. Pharmacol. Chemotherap. 32, 295 (1968); a modification of the anti-bradykinin test, which is also a primary analgesic screening procedure, described by Berkowitz et al., J. Pharmacol. Exptl. Therap. 177, 500-508 (1971), Blane et al., J. Pharm. Pharmacol. 19, 367-373 (1967), Botha et al., Eur. J. Pharmacol. 6, 312-321 (1969) and Deffenu et al., J. Pharm. Pharmacol. 18, 135 (1966); and the Randall-Selitto analgesic test described by Randall and Selitto, Arch. Int. Pharmacodyn., 111, 409-419 (1957).
Data in the developing adjuvant arthritis (AA) and plasma fibronectin (FN) assays are expressed as percent inhibition, i.e. inhibition of non-injected paw inflammation (NIP) and injected paw (RPV) and lowering of plasma fibronectin, the asterisks * and ** indicating statistical significance at the p<0.01 and p<0.05 levels, respectively. […] Non-statistically significant results are recorded as "------ ". In the acetylcholine-induced abdominal constriction test, the test compounds were administered either as suspensions in gum tragacanth (GT) or as aqueous solutions prepared by addition of just sufficient dilute aqueous methanesulfonic acid (MS) or dilute aqueous lactic acid (LA) to dissolve the compound. The compounds are identified by the example number above where their preparations are described. All data in the anti-bradykinin, rat writhing and Randall-Selitto tests were obtained on oral administration.

Assay [2] has as its system adjuvant induced arthritis. The assay can be described thus: developing adjuvant arthritis (AA) assay. In kind it is in vivo. Details: key: Non-statistically significant results are recorded as "------ ". The following applies: arthritic rats; printed * = p<0.01, ** = p<0.05. The method, then:
Antirheumatic and anti-inflammatory activities of the compounds of the invention were determined using the developing adjuvant arthritis assay in rats and the plasma fibronectin assay in arthritic rats. The developing adjuvant arthritis assay was used in conjunction with the plasma fibronectin assay as a primary screening method in the evaluation of compounds for potential use as disease modifying anti-rheumatic drugs. The procedure used to induce arthritis in rats is a modification of the methods published by Pearson, J. Chron. Dis. 16, 863-874 (1973) and by Glenn et al., Amer. J. Vet. Res. 1180-1193 (1965). Adjuvant induced arthritis bears many of the traits of rheumatoid arthritis. It is a chronic, progressive, deforming arthritis of the peripheral joints, with a primary mononuclear cell response consisting of bone and joint space invasion by pannus. In order to detect disease modifying anti-rheumatic drug activity, drug treatment is started before the disease has become irrevocably established. Since such drugs are not designed to be administered prophylactically, drug treatment of adjuvant arthritis is initiated at a time when the disease is developing but is not yet irreversible. Animals develop significant systemic arthritic disease which can be measured by swelling of the non-injected rear paw (NIP) 15 to 20 days following an initial injection on day 1 of complete Freund's adjuvant into the right hindfoot paw.
Data in the developing adjuvant arthritis (AA) and plasma fibronectin (FN) assays are expressed as percent inhibition, i.e. inhibition of non-injected paw inflammation (NIP) and injected paw (RPV) and lowering of plasma fibronectin, the asterisks * and ** indicating statistical significance at the p<0.01 and p<0.05 levels, respectively. Compounds are considered active at p<0.05 level. Non-statistically significant results are recorded as "------ ". In the acetylcholine-induced abdominal constriction test, the test compounds were administered either as suspensions in gum tragacanth (GT) or as aqueous solutions prepared by addition of just sufficient dilute aqueous methanesulfonic acid (MS) or dilute aqueous lactic acid (LA) to dissolve the compound. The compounds are identified by the example number above where their preparations are described. All data in the anti-bradykinin, rat writhing and Randall-Selitto tests were obtained on oral administration.

The mark [3] stands for this setting: Table 9, Examples, no route marked in the cell, read-out: ACH ED50.

Where a name gives a salt, the structure may show the parent alone. Read-outs that look alike come from different tables or passages of the source.

The source of these data is patent US5817651A, “3-arylcarbonyl-1-(C-attached-N-heteryl)-1H-indoles” (Sanofi, priority 1997, dated 1998).

Regarding `Cc1cc2ccccc2n1CC1CN(C)CCO1` (racemic) [Preparation 1A, 1-[(4-methyl-2-morpholinyl)methyl]-2-methyl-1H-indole], the inhibition in vivo at 100 mg/kg in assay [1] (Table 10, Prepn. No.) was 10%.
As usually defined, the ED50 is the dose that gives a 50% effect, or the effect in half of the subjects. Turning to `Cc1c(C(=O)c2ccccc2F)c2ccccc2n1C[C@@H]1CC[C@@H](C)N1C` (relative stereo) [Example 1AD], the ED50 in assay [1] (setting [3]) came out at 34 mg/kg.
Turning to `COc1ccc(C(=O)c2c(C)n(C[C@@H]3CC[C@@H](C)N3Cc3ccccc3)c3ccccc23)cc1` (relative stereo) [Example 1AE], the inhibition in vivo at 100 mg/kg in assay [1] (Table 9) came out at 30%.
For `COc1ccc(C(=O)c2c(C)n(C3CCCN(C)C3)c3ccccc23)cc1` (centres unmarked) [2AG(b)], the 50% effective dose (ED50) in assay [1] (setting [3]) turned out to be 30 mg/kg.
For the molecule `COc1ccc(C(=O)c2c(C)n(CC3CCCN3Cc3ccccc3)c3ccccc23)cc1` (centres unmarked) [Example 1AG], the inhibition in vivo at 100 mg/kg in assay [1] (Table 9) is 0%.
For `COc1ccc(C(=O)c2c(C)n(C3CCN(C)CC3)c3ccccc23)cc1` [Example 1B], in assay [2], the “NIP: percent inhibition of non-injected paw inflammation” value came out at 88% and the “RPV: percent inhibition of injected paw” value came out at 65%. The ED50 in assay [1] (setting [3]) stood at 69 mg/kg.
Turning to `Cc1c(C(=O)c2ccc(O)cc2)c2ccccc2n1CC1CN(C)CCO1` (centres unmarked) [Example 1D], the inhibition in vivo at 100 mg/kg in assay [1] (Table 9) was 10%.
Take `COc1ccc(C(=O)c2cn(CC3CCCN(C)C3)c3ccc(F)cc23)cc1` (centres unmarked) [Example 1H]: in assay [2], the “NIP: percent inhibition of non-injected paw inflammation” value turned out to be 92% and the “RPV: percent inhibition of injected paw” value amounted to 63%. For the same molecule, the inhibition in vivo at 100 mg/kg in assay [1] (Table 9) turned out to be 20%.
Take `Cc1c(C(=O)c2ccc(Cl)cc2)c2ccccc2n1CC1CCCN(C)C1` (centres unmarked) [Example 1L]: in assay [2], the “NIP: percent inhibition of non-injected paw inflammation” value turned out to be 83% and the “RPV: percent inhibition of injected paw” value is listed as 60%. In assay [1] (setting [3]), the ED50 came out at 62 mg/kg.
Consider `Cc1c(C(=O)c2cccc(F)c2)c2ccccc2n1CC1CCCN(C)C1` (centres unmarked) [Example 1O], for which, in assay [1] (setting [3]), the ED50 was 71 mg/kg.
Regarding `CN1CCCC(Cn2cc(C(=O)c3ccccc3)c3ccccc32)C1` (centres unmarked) [Example 1Q], in assay [1] (setting [3]), the ED50 was determined as 45 mg/kg.
Regarding `CN1CCCCC(n2cc(C(=O)c3cccc4ccccc34)c3ccccc32)C1` (centres unmarked) [Example 1R], the inhibition in vivo at 100 mg/kg in assay [1] (Table 9) came out at 20%.
As to `COc1ccc(C(=O)c2c(C(C)C)n(CC3CCCN(C)C3)c3ccc(F)cc23)cc1` (centres unmarked) [Example 1S], in assay [2], the “NIP: percent inhibition of non-injected paw inflammation” value is recorded as 73% and the “RPV: percent inhibition of injected paw” value is given as 36%. In addition, the ED50 in assay [1] (setting [3]) amounted to 21 mg/kg.
With `COc1cccc(C(=O)c2c(C)n(CC3CCCN(C)C3)c3ccccc23)c1` (centres unmarked) [Example 1T], in assay [1] (setting [3]), the ED50 is 64 mg/kg.
In the case of `COc1ccc(C(=O)c2c(C(C)C)n(CC3CCCN(C)C3)c3ccccc23)cc1` (centres unmarked) [Example 1U], the 50% effective dose (ED50) in assay [1] (setting [3]) is 22 mg/kg.
Turning to `COc1ccc(C(=O)c2c(C)n(C3CCN(Cc4ccccc4)C3)c3ccccc23)cc1` (centres unmarked) [Example 1W], the inhibition in vivo at 100 mg/kg in assay [1] (Table 9) came out at 35%.
Consider `COc1ccc(C(=O)c2c(C)n(CCC3CCCN3C)c3ccc(F)cc23)cc1` (centres unmarked) [Example 2A, 5-fluoro-2-methyl-1-[2-(1-methyl-2-pyrrolidinyl)ethyl]-3-(4-methoxybenzoyl)-1H-indole hydrochloride hemihydrate], for which, in assay [2], the “NIP: percent inhibition of non-injected paw inflammation” value amounted to 86% and the “RPV: percent inhibition of injected paw” value was 69%. In assay [1] (setting [3]), the ED50 worked out at 32 mg/kg.
For `CN1CCCC(Cn2cc(C(=O)c3ccccc3F)c3ccccc32)C1` (centres unmarked) [Example 2AA], the ED50 in assay [1] (setting [3]) turned out to be 65 mg/kg.
For the molecule `CN1CCCCC(n2cc(C(=O)c3ccccc3F)c3ccccc32)C1` (centres unmarked) [Example 2AD], the inhibition in vivo at 100 mg/kg in assay [1] (Table 9) was found to be 20%.
The same measure, in the same setting: the result for `COc1ccc(C(=O)c2c(C)n(CC3CN(C(c4ccccc4)c4ccccc4)C3)c3ccccc23)cc1` [Example 2AL] reads 20%; that for `Cc1c(C(=O)c2ccc([N+](=O)[O-])cc2)c2ccccc2n1CC1CCCN(C)C1` (centres unmarked) [Example 2AN], 30%.
In the case of `COc1ccc(C(=O)c2cn(CCC3CCCN3C)c3ccc(F)cc23)cc1` (centres unmarked) [Example 2C], in assay [2], the “NIP: percent inhibition of non-injected paw inflammation” value was determined as 55% and the “RPV: percent inhibition of injected paw” value is 27%. In addition, the ED50 in assay [1] (setting [3]) came out at 49 mg/kg.
For `CCc1ccc(C(=O)c2c(C)n(CC3CCCN(C)C3)c3ccccc23)cc1` (centres unmarked) [Example 2N], the median effective dose (ED50) in assay [1] (setting [3]) worked out at 46 mg/kg.
Consider `COc1ccc(C(=O)c2cn(CCC3CCCN3C)c3ccccc23)cc1` (centres unmarked) [Example 2S], for which, in assay [2], the “NIP: percent inhibition of non-injected paw inflammation” value came to 33% and the “RPV: percent inhibition of injected paw” value was 21%. Further, in assay [1] (setting [3]), the ED50 is 50 mg/kg.
For the molecule `COc1ccc(C(=O)c2c(C)n(CC3CCCN(Cc4ccccc4)C3)c3ccccc23)cc1` (centres unmarked) [Example 2T], in assay [2], the “NIP: percent inhibition of non-injected paw inflammation” value is on record as 92% and the “RPV: percent inhibition of injected paw” value is given as 68%. In addition, the “ACH percent inhibition at dose 300” value in assay [1] (Table 9, dose level 300) is recorded as 20%.
Take `CCN1CCCC1Cn1c(C)c(C(=O)c2ccc(OC)cc2)c2ccccc21` (centres unmarked) [Example 2Y]: in assay [2], the “NIP: percent inhibition of non-injected paw inflammation” value was found to be 46% and the “RPV: percent inhibition of injected paw” value was determined as 15%. Moreover, the ED50 in assay [1] (setting [3]) stood at 43 mg/kg.
`COc1ccc(C(=O)c2c(C)n(C3CSCCN(C)C3)c3ccccc23)cc1` (centres unmarked) [Example 3B]: the inhibition in vivo at 100 mg/kg in assay [1] (Table 9) came out at 60%.
With `COc1ccc(C(=O)c2c(C)n(CC3CN(C)CCS3)c3ccccc23)cc1` (centres unmarked) [Example 3C], the ED50 in assay [1] (setting [3]) came out at 30 mg/kg.
As for `CN1CCCC(n2cc(C(=O)c3ccccc3F)c3ccccc32)C1` (centres unmarked) [Example 4D], in assay [2], the “NIP: percent inhibition of non-injected paw inflammation” value is given as 80% and the “RPV: percent inhibition of injected paw” value is on record as “--”. Also, in assay [1] (Table 9, dose level 10), the “ACH percent inhibition at dose 10” value came out at 65%. Besides, the “ACH percent inhibition at dose 30” value in assay [1] (Table 9, dose level 30) worked out at 50%.
As to `CC(C1CCCNC1)n1cc(C(=O)c2ccccc2F)c2ccccc21` (centres unmarked) [Example 4E], the ED50 in assay [1] (setting [3]) worked out at 43 mg/kg.
The same measure, in the same setting: the result for `COc1ccc(C(=O)c2c(C)n(CC3C[S+]([O-])CCN3C)c3ccccc23)cc1` (centres unmarked) [Example 6B, 2-methyl-3-(4-methoxybenzoyl)-1-[(4-methyl-3-thiomorpholinyl)methyl]-1H-indole-S-oxide] reads 5 mg/kg; that for `CCCN1CCCC(Cn2c(C)c(C(=O)c3ccc(OC)cc3)c3ccccc32)C1` (centres unmarked) [Example 7, 2-methyl-3-(4-methoxybenzoyl)-1-[(1-propyl-3-piperidinyl)methyl]-1H-indolehydrochloride], 18 mg/kg.
Still for that read-out and setting: to `COc1ccc(C(=O)c2c(C)n(C3CCNC3)c3ccccc23)cc1` (centres unmarked) [Example 8B] belongs 29 mg/kg.
Still for that read-out and setting: the result for `COc1ccc(C(=O)c2c(C)n(CC3COCCN3C)c3ccccc23)cc1` (centres unmarked) [Example 10B, 2-methyl-3-(4-methoxybenzoyl)-1-[(4-methyl-3-morpholinyl)methyl]-1H-indole] reads 29 mg/kg.
As to `CN1CCCC(Cn2ccc3cc(F)ccc32)C1` (centres unmarked) [Preparation 1D, 1-[(1-methyl-3-piperidinyl)methyl]-5-fluoro-1H-indole], in assay [1] (Table 10, Prepn. No. (intermediates of formula II), no route marked, read-out: ACH ED50), the ED50 came to 65 mg/kg.
As to `Cc1cc2ccccc2n1CC1CCCN(C)C1.Cl` (centres unmarked) [Preparation 1P, 2-methyl-1-[(1-methyl-3-piperidinyl)methyl]-1H-indole hydrochloride], the median effective dose (ED50) in assay [1] (iv, Table 10, Prepn. No., i.v., read-out: ACH ED50 (i.v.)) is 9.7 mg/kg; in assay [1] (po, Table 10, Prepn. No., p.o., read-out: ACH ED50 (p.o.)), 66 mg/kg.
As for `Cc1cc2ccccc2n1CCC1CCCCN1C` (centres unmarked) [Preparation 1Q, 2-methyl-1-[2-(1-methyl-2-piperidinyl)-ethyl]-1H-indole], in assay [1] (Table 10, Prepn. No.), the inhibition in vivo at 100 mg/kg is 30%.
